What is called MIC is the lowest concentration that inhibits growth of the organism. A high value points to a need for much substance. As usually defined, the IC50 is the point on the concentration scale where inhibition reaches its midpoint. A higher IC50 goes with a need for much substance. One may read the inhibition as how much of the control response was suppressed. A high value points to a strong effect.

≈ marks a conversion by molar mass, not a printed value. Calls of active or inactive are those of the source. No cut-off for these calls is given here.

In assay [1] the target is T1, Enoyl-[acyl-carrier-protein] reductase [NADH] (Mycobacterium tuberculosis) (UniProt P9WGR1).
T1 sequence (whole entry): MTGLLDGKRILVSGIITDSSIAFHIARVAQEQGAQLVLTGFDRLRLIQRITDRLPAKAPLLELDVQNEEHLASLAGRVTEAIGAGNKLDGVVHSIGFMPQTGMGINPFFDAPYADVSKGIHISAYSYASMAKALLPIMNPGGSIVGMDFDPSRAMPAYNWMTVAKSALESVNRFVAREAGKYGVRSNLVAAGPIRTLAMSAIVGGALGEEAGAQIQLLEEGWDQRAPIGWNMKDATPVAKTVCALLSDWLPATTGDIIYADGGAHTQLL
The note with it: 20 uM.

The test system of assay [2] is Mycobacterium tuberculosis. The experiment in a line: Antibacterial activity against Mycobacterium tuberculosis H37Rv by alamar blue assay. Type of assay: functional. On the technique in general: Alamar Blue is a resazurin reagent that responds to reducing activity.
The target in assay [3] is T2, Enoyl-[acyl-carrier-protein] reductase [NADH] (Mycobacterium tuberculosis, UniProt P9WGR1).
T2 sequence (P9WGR1 whole entry): T1 sequence (whole entry)
Description: (§1) Inhibition of Mycobacterium tuberculosis InhA

Assay [4] concerns the target T1, Enoyl-[acyl-carrier-protein] reductase [NADH] (Mycobacterium tuberculosis).
Description: as §1
Assay [5] has the same target. The following applies: 2.4 uM.
Description: Inhibition of Mycobacterium tuberculosis InhA at 2.4 uM

Turning to `O=C(Nc1nnc(Cc2ccccc2)s1)C1CC(=O)N(C2CCCCC2)C1` (configuration not stated), the result in assay [1] was inactive. The compound `CN(Cc1c2ccccc2cc2ccccc12)C(=O)C1CC(=O)N(C2CCCCCCC2)C1` (configuration not stated) came in with an MIC in assay [2] of 62.5 µM (≈ 27.7 µg/mL). In addition, the IC50 in assay [3] worked out at 620 nM. Take `O=C(C1CC(=O)N(C2CCCCC2)C1)N1CCc2ccccc21` (configuration not stated): the inhibition in assay [4] (concentration not given here) was 65%. As for `Cc1nnc(NC(=O)C2CC(=O)N(C3CCCCC3)C2)s1` (configuration not stated), the outcome in assay [1] was inactive. The same measure, in the same setting: the value for `O=C(NC1CCCCC1)C1CC(=O)N(C2CCCCC2)C1` (configuration not stated) was “inactive”. `O=C(Nc1cc(Br)cc(C(F)(F)F)c1)C1CC(=O)N(C2CCCCC2)C1` (configuration not stated): it took 62.5 µM (≈ 27.1 µg/mL) to inhibit growth in assay [2] (MIC). Moreover, half-maximal inhibition in assay [3] (IC50) was put at 850 nM. In the case of `O=C(Nc1cccc(-c2ccccc2)c1)C1CC(=O)N(C2CCCCC2)C1` (stereo in doubt; p24b), the midpoint of inhibition in assay [3], the IC50, lay at 255 nM. For the compound `CN(Cc1c2ccccc2cc2ccccc12)C(=O)C1CC(=O)N(C2CC3CCC2C3)C1` (configuration not stated), the MIC in assay [2] was determined as 125 µM (≈ 53.3 µg/mL). Further, the half-maximal inhibitory concentration (IC50) in assay [3] stood at 850 nM. On to `CCc1nnc(NC(=O)C2CC(=O)N(C3CCCCC3)C2)s1` (configuration not stated), for which the result in assay [1] was inactive. In assay [3], `O=C(Nc1cccc(-c2ccccc2)c1)C1CC(=O)N(C2CCCCC2)C1` (stereo in doubt; p24) registered an IC50 of 390 nM. In other words, the sub-micromolar range. `O=C(Nc1cc(Cl)cc(Cl)c1)C1CC(=O)N(C2CCCCC2)C1` (stereo in doubt; d11a): the IC50 in assay [3] was found to be 8160 nM.

In assay [3], `O=C(Nc1cc(-c2ccccc2)c(O)c(-c2ccccc2)c1)C1CC(=O)N(C2CCCCCC2)C1` (configuration not stated) had a half-maximal inhibitory concentration (IC50) of 270 nM. Compared with the last compound, the IC50 is about 30-fold lower. For `CN1CCN(C(=O)C2CC(=O)N(C3CCCCC3)C2)CC1` (configuration not stated), the outcome in assay [1] was inactive. The same measure, in the same setting: the value for `N#Cc1c(NC(=O)C2CC(=O)N(C3CCCCC3)C2)sc2c1CCCC2` (configuration not stated) was “inactive”; that for `O=C(C1CC(=O)N(C2CCCCC2)C1)N1CCOCC1` (configuration not stated) was “inactive”; that for `CCC(C)NC(=O)C1CC(=O)N(C2CCCCC2)C1` (configuration not stated) was “inactive”.

Take `O=C(Nc1nnc(CCc2ccccc2)s1)C1CC(=O)N(C2CCCCC2)C1` (configuration not stated): the outcome in assay [1] was inactive. The compound `O=C(Nc1cccc(OCc2ccccc2)c1)C1CC(=O)N(C2CCCCC2)C1` (configuration not stated) gave an MIC in assay [2] of 125 µM (≈ 49.1 µg/mL). In assay [3], `O=C(Nc1cccc(-c2ccccc2)c1)C1CC(=O)N(C2CC3CCC2C3)C1` (configuration not stated) showed an IC50 of 460 nM. On the same count and under the same terms, the value for `O=C(Nc1cc(Cl)cc(Cl)c1)C1CC(=O)N(C2CCCCC2)C1` (stereo in doubt; d11b) was 200 nM. On the same count and under the same terms, next, `O=C(Nc1cccc(Cc2ccccc2)c1)C1CC(=O)N(C2CCCCC2)C1` (configuration not stated): 410 nM; `O=C(Nc1cc(Cl)cc(Cl)c1)C1CC(=O)N(C2CCCCC2)C1` (stereo in doubt; d11): 390 nM. For the compound `CC(=O)c1cccc(NC(=O)C2CC(=O)N(C3CCCCC3)C2)c1` (configuration not stated), in assay [4], the result was inactive. Same read-out and setting: the value for `O=C(Nc1cccc(O)c1)C1CC(=O)N(C2CCCCC2)C1` (configuration not stated) was “inactive”. In the case of `O=C(C1CC(=O)N(C2CCCCC2)C1)N1CCN(c2ccccc2)CC1` (configuration not stated), in assay [1], the outcome was inactive. Still for that read-out and setting: the value for `O=C(NC1CCCC1)C1CC(=O)N(C2CCCCC2)C1` (configuration not stated) was “inactive”. Take `O=C(Nc1cccc(Br)c1)C1CC(=O)N(c2ccccc2)C1` (configuration not stated): half-maximal inhibition in assay [3] (IC50) was put at 13500 nM. On the same count and under the same terms, the value for `O=C(Nc1cccc(Br)c1)C1CC(=O)N(C2CCCCC2)C1` (configuration not stated) was 890 nM. Turning to `O=C(Nc1cc(-c2ccccc2)c(O)c(-c2ccccc2)c1)C1CC(=O)N(C2CCCCC2)C1` (stereo in doubt; p64a), the inhibition in assay [5] is 72.7%. Regarding `Cc1ccc(Cl)cc1NC(=O)C1CC(=O)N(C2CCCCC2)C1` (configuration not stated), the concentration for half-maximal inhibition (IC50) in assay [3] was determined as 970 nM. Turning to `CN(Cc1c2ccccc2cc2ccccc12)C(=O)C1CC(=O)N(C2CCCCCC2)C1` (configuration not stated), the lowest concentration to inhibit growth in assay [2] (MIC) was 125 µM (≈ 53.6 µg/mL). For the same compound, inhibition in assay [3] was half-maximal at 320 nM (IC50).

As to `COCc1nnc(NC(=O)C2CC(=O)N(C3CCCCC3)C2)s1` (configuration not stated), the outcome in assay [1] was inactive. As for `CS(=O)(=O)Nc1cccc(NC(=O)C2CC(=O)N(C3CCCCC3)C2)c1` (configuration not stated), the outcome in assay [4] was inactive. The compound `CN(Cc1c2ccccc2cc2ccccc12)C(=O)C1CC(=O)N(C2CCCCC2)C1` (configuration not stated) returned an MIC in assay [2] of 125 µM (≈ 51.8 µg/mL). In addition, in assay [3], the midpoint of inhibition, the IC50, lay at 750 nM. With `O=C(Nc1cccc(-c2ccccc2)c1)C1CC(=O)N(C2CCCCC2)C1` (stereo in doubt; p24a), the concentration for half-maximal inhibition (IC50) in assay [3] is 2100 nM. `NC(=O)c1cccc(NC(=O)C2CC(=O)N(C3CCCCC3)C2)c1` (configuration not stated): the outcome in assay [4] was inactive.

For the compound `COc1cccc(NC(=O)C2CC(=O)N(C3CCCCC3)C2)c1` (configuration not stated), the outcome in assay [4] was inactive.
